The text below walks through data of US20260007681A1, “INDOLE DERIVATIVES AS ESTROGEN RECEPTOR DEGRADERS” (REGENTS OF THE UNIVERSITY OF MICHIGAN, priority 2022, published 2026).

Chain of ER (P03372 whole entry): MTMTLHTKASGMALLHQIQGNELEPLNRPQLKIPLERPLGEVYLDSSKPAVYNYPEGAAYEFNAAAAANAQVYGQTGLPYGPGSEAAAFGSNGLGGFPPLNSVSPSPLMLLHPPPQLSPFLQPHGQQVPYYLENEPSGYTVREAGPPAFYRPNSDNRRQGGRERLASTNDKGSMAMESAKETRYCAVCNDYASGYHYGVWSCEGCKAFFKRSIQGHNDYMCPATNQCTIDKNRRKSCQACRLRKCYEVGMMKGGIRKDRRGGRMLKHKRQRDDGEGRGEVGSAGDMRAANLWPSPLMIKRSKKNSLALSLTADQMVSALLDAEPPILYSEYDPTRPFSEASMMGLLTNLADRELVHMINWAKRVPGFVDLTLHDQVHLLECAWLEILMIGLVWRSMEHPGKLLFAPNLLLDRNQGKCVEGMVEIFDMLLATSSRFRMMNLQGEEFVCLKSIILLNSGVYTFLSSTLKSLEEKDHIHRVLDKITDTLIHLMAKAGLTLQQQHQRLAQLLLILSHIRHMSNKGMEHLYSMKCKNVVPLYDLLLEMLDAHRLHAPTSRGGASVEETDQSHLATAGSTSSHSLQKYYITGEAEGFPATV

This test addresses ER (Homo sapiens (Human), UniProt P03372). Kind of test: Western blot analysis (Compounds B1-B278). The test is classed as cell-based. The conditions noted are these: ER degradation by traditional Western blot; DC50 classes. Summed up:
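Relative target-protein levels come from densitometry of immunoblots, normalized to GAPDH. Lysates from treated cells were prepared in RIPA buffer (pH 7.6) containing protease inhibitors, and equal protein amounts, checked by BCA, were separated on 10% gels and blotted onto PVDF.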
For `C[C@@H]1Cc2c([nH]c3ccccc23)[C@@H](c2c(F)cc(N3CC4(CC(C(=O)N5CCC(CN6Cc7cc8c(cc7C6)C(=O)N(C6CCC(=O)NC6=O)C8=O)CC5)C4)C3)cc2F)N1CC(F)F` (stereo partly drawn) [Compound B55, 6-((1-(2-(4-((1R,3R)-2-(2,2-difluoroethyl)-3-methyl-2,3,4,9-tetrahydro-1H-pyrido[3,4-b]indol-1-yl)-3,5-difluorophenyl)-2-azaspiro[3.3]heptane-6-carbonyl)piperidin-4-yl)methyl)-2-(2,6-dioxopiperidin-3-yl)-6,7-dihydropyrrolo[3,4-f]isoindole-1,3(2H,5H)-dione], the “Traditional Western Degradation Potency” value is reported as “A (“A”: <10 nM)”. Take `C[C@@H]1Cc2c([nH]c3ccccc23)[C@@H](c2c(F)cc(N3CC4(CC(C(=O)N5CCC(N6Cc7cc8c(cc7C6)C(=O)N(C6CCC(=O)NC6=O)C8=O)CC5)C4)C3)cc2F)N1CC(F)F` (stereo partly drawn) [Compound B56, 6-(1-(2-(4-((1R,3R)-2-(2,2-difluoroethyl)-3-methyl-2,3,4,9-tetrahydro-1H-pyrido[3,4-b]indol-1-yl)-3,5-difluorophenyl)-2-azaspiro[3.3]heptane-6-carbonyl)piperidin-4-yl)-2-(2,6-dioxopiperidin-3-yl)-6,7-dihydropyrrolo[3,4-f]isoindole-1,3(2H,5H)-dione]: the “Traditional Western Degradation Potency” value is on record as “A (“A”: <10 nM)”. For `C[C@@H]1Cc2c([nH]c3ccccc23)[C@@H](c2c(F)cc(N3CCC(N4CC(CN5Cc6cc7c(cc6C5)C(=O)N(C5CCC(=O)NC5=O)C7=O)C4)CC3)cc2F)N1CC(F)F` (stereo partly drawn) [Compound B57, 6-((1-(1-(4-((1R,3R)-2-(2,2-difluoroethyl)-3-methyl-2,3,4,9-tetrahydro-1H-pyrido[3,4-b]indol-1-yl)-3,5-difluorophenyl)piperidin-4-yl)azetidin-3-yl)methyl)-2-(2,6-dioxopiperidin-3-yl)-6,7-dihydropyrrolo[3,4-f]isoindole-1,3(2H,5H)-dione], the “Traditional Western Degradation Potency” value is listed as “B (“B”: 10-100 nM)”. As for `C[C@@H]1Cc2c([nH]c3ccccc23)[C@@H](c2c(F)cc(N3CCC(N4CCC(CN5Cc6cc7c(cc6C5)C(=O)N(C5CCC(=O)NC5=O)C7=O)CC4)CC3)cc2F)N1CC(F)F` (stereo partly drawn) [Compound B58, 6-((1′-(4-((1R,3R)-2-(2,2-difluoroethyl)-3-methyl-2,3,4,9-tetrahydro-1H-pyrido[3,4-b]indol-1-yl)-3,5-difluorophenyl)-[1,4′-bipiperidin]-4-yl)methyl)-2-(2,6-dioxopiperidin-3-yl)-6,7-dihydropyrrolo[3,4-f]isoindole-1,3(2H,5H)-dione], the “Traditional Western Degradation Potency” value was “C (“C”: >100 nM)”. Take `C[C@@H]1Cc2c([nH]c3ccccc23)[C@@H](c2c(F)cc(N3CCC(N4CC(C(=O)N5Cc6cc7c(cc6C5)C(=O)N(C5CCC(=O)NC5=O)C7=O)C4)CC3)cc2F)N1CC(F)F` (stereo partly drawn) [Compound B59, 6-(1-(1-(4-((1R,3R)-2-(2,2-difluoroethyl)-3-methyl-2,3,4,9-tetrahydro-1H-pyrido[3,4-b]indol-1-yl)-3,5-difluorophenyl)piperidin-4-yl)azetidine-3-carbonyl)-2-(2,6-dioxopiperidin-3-yl)-6,7-dihydropyrrolo[3,4-f]isoindole-1,3(2H,5H)-dione]: the “Traditional Western Degradation Potency” value is reported as “C (“C”: >100 nM)”. Take `C[C@@H]1Cc2c([nH]c3ccccc23)[C@@H](c2c(F)cc(N3CCC(N4CC(C(=O)N5Cc6cc7c(cc6C5)C(=O)N(C5CCC(=O)NC5=O)C7)C4)CC3)cc2F)N1CC(F)F` (stereo partly drawn) [Compound B60, 3-(6-(1-(1-(4-((1R,3R)-2-(2,2-difluoroethyl)-3-methyl-2,3,4,9-tetrahydro-1H-pyrido[3,4-b]indol-1-yl)-3,5-difluorophenyl)piperidin-4-yl)azetidine-3-carbonyl)-1-oxo-3,5,6,7-tetrahydropyrrolo[3,4-f]isoindol-2(1H)-yl)piperidine-2,6-dione]: the “Traditional Western Degradation Potency” value is on record as “B (“B”: 10-100 nM)”.
